{"source": "patent US9540702B2", "about": "“Stabilization of enzymes with stable coenzymes” (Roche Diabetes Care, Inc., priority 2009, dated 2017)", "key": {"[1]": {"system": "diaphorase", "assay": "Enzyme activity in test strips stored up to 18 weeks (Table 7)", "format": "biochemical", "procedure": "(§1) In order to evaluate the stabilization of glucose dehydrogenase and diaphorase by carbaNAD, a number of test strips were prepared in analogy to Example 5.\n(§2) The test strips were stored over a period of 18 weeks at temperatures of 5° C. (KS, refrigerator), 25° C. (RT), 30° C. (GT), 35° C. (DT) and 45° C. (HT), and the enzyme activity in the test strips was determined at the start of storage (0 weeks), after 6 weeks, after 9 weeks, after 12 weeks and after 18 weeks. The results are shown in Table 6 (glucose dehydrogenase) and in Table 7 (diaphorase)."}, "[2]": {"system": "malate dehydrogenase", "conditions": "3.8 mM ligand; 0.5M carbonate buffer, pH 10.0", "protocol": "The DSC device was cleaned and calibrated according to the MicroCal handbook before carrying out the measurements in order to ensure a correct operation. Lysozyme (1 mg/ml) in 0.1 M glycine-HCl pH 2.4 was measured in duplicate as a control before and after each scan process. Measuring cells, valve and syringe were washed three times with water after every six injections. The data was analysed using the MicroClas Origin software.\nIn each case 0.1 M Tris buffer, pH 8.5 was used as the measurement buffer if not stated otherwise."}, "[3]": {"target": "L lactate dehydrogenase (from rabbit) (Oryctolagus cuniculus, UniProt P13491)", "assay": "DSC of coenzyme binding", "conditions": "3.8 mM ligand; 0.1 M Tris buffer, pH 8.5"}, "[4]": {"target": "T1, diaphorase (from porcine heart) (Sus scrofa, UniProt P09623)", "T1 construct": "3 U/ml diaphorase (from porcine heart); from tissue; host or cells: porcine heart", "T1 sequence (P09623 36-509)": "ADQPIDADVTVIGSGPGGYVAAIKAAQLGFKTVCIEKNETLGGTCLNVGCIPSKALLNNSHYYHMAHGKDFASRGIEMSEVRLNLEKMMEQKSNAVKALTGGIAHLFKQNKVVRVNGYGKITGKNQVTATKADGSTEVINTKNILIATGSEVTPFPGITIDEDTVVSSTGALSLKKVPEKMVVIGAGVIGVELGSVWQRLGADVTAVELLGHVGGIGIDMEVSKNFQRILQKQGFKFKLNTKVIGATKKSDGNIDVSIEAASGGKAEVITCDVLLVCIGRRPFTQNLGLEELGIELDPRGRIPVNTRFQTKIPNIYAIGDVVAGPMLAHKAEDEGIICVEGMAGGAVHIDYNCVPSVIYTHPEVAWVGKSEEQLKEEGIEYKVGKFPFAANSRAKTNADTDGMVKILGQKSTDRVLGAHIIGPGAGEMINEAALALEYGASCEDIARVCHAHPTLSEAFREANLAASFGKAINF", "assay": "Diaphorase activity in liquid reagent for lactate dehydrogenase stored at 25° C.", "format": "biochemical", "conditions": "liquid reagent stored at 25° C.; 2 mM carbaNAD or 0.2 mM NAD; various storage times", "procedure": "A liquid reagent which, among others, contained diaphorase, carbaNAD, a tetrazolium salt and lactate was used to determine the activity of lactate dehydrogenase. The detection reagent which was stored in solution at 25° C. contained the following ingredients:\n3 U/ml diaphorase (from porcine heart)\n2 mM carbaNAD or 0.2 mM NAD\n2 mM tetrazolium salt WST-3\n0.1 M tricine/HCl, pH 8.8"}, "[5]": {"assay": "Residual content of coenzyme in glucose detection reagent after storage at 32° C. and 85% relative air humidity", "format": "physicochemical", "conditions": "24 weeks storage at 32° C. and 85% relative air humidity", "procedure": "(§3) carbaNAD (FIG. 1A) or NAD were added to the glucose-specific GlucDH. These formulations were each applied to Pokalon foils (Lonza) and, after drying, stored under warm and humid conditions (32° C., 85% relative air humidity). Subsequently, the reaction kinetics and the function curve were determined at regular intervals. In parallel at each of the measurement times a cNAD/NAD analysis and a determination of the residual activity of the enzyme were carried out.\nAccording to this the residual content of cNAD in a glucose detection reagent is still about 80% of the initial value after 24 weeks storage (at 32° C. and 85% relative air humidity), whereas the content of NAD in a glucose detection reagent stabilized with NAD is already reduced to about 35% of the initial value after 5 weeks and, by extrapolation, is reduced to zero after about 17 weeks."}, "[6]": {"target": "Glucose dehydrogenase mutant2 (Bacillus subtilis, UniProt P12310, A229V/A236S/E170K/Q252L)", "sequence (P12310 whole entry E170K/A229V/A236S/Q252L)": "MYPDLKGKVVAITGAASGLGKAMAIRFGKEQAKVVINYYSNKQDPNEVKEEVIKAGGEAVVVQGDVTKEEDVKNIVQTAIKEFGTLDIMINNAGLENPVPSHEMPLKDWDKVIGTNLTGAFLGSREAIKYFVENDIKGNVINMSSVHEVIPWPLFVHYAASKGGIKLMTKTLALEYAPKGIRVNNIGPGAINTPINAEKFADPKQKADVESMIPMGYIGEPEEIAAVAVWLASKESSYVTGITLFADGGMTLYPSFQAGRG", "assay": "Enzyme activity in test strips stored up to 18 weeks (Table 6)", "format": "biochemical", "procedure": "as §1, §2"}, "[7]": {"target": "glucose dehydrogenase (GlucDH, wild-type) (Bacillus subtilis, UniProt P12310)", "sequence (P12310 whole entry)": "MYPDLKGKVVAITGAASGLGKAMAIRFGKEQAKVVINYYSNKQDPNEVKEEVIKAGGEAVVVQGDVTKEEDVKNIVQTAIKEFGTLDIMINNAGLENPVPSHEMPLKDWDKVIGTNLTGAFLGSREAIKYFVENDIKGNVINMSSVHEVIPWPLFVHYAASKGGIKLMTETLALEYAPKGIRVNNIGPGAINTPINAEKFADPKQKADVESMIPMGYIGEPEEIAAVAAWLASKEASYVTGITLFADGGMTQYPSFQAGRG", "assay": "Residual activity of GlucDH stored dry on Pokalon foils with coenzyme at 32° C., 85% relative air humidity", "format": "biochemical", "procedure": "as §3\nThe result of the determination of residual activity of the active enzyme GlucDH after 5 weeks at 32° C. and 85% relative air humidity (FIG. 7A) is completely surprising. The enzyme stabilized with NAD now only has an extremely low enzyme activity (0.5%), whereas the enzyme stabilized with cNAD still has a residual activity of 70% (in each case compared to the samples stored in a refrigerator (KS) with desiccant (TM)). After 24 weeks at 32° C. and 85% relative air humidity (FIG. 7B) the residual activity of the enzyme when stabilized with cNAD is still about 25%."}}, "data": [{"compound": "NC(=O)c1ccc[n+]([C@@H]2C[C@H](COP(=O)([O-])OP(=O)(O)OC[C@H]3O[C@@H](n4cnc5c(N)ncnc54)[C@H](O)[C@@H]3O)[C@@H](O)[C@H]2O)c1", "note": "[carbaNAD]", "values": [{"measurement": "Enzyme activity, diaphorase", "setting": "[1]; 0 weeks (start of storage)", "result": 4.6, "unit": "U/cm^2"}, {"measurement": "Enzyme activity, diaphorase", "setting": "[1]; DT (35° C.), 6 weeks", "result": 3.4, "unit": "U/cm^2"}, {"measurement": "Enzyme activity, diaphorase", "setting": "[1]; DT (35° C.), 9 weeks", "result": 4.4, "unit": "U/cm^2"}, {"measurement": "Enzyme activity, diaphorase", "setting": "[1]; DT (35° C.), 12 weeks", "result": 4.0, "unit": "U/cm^2"}, {"measurement": "Enzyme activity, diaphorase", "setting": "[1]; DT (35° C.), 18 weeks", "result": 5.3, "unit": "U/cm^2"}, {"measurement": "Enzyme activity, diaphorase", "setting": "[1]; GT (30° C.), 12 weeks", "result": 4.3, "unit": "U/cm^2"}, {"measurement": "Enzyme activity, diaphorase", "setting": "[1]; GT (30° C.), 18 weeks", "result": 6.2, "unit": "U/cm^2"}, {"measurement": "Enzyme activity, diaphorase", "setting": "[1]; HT (45° C.), 6 weeks", "result": 3.9, "unit": "U/cm^2"}, {"measurement": "Enzyme activity, diaphorase", "setting": "[1]; HT (45° C.), 9 weeks", "result": 3.8, "unit": "U/cm^2"}, {"measurement": "Enzyme activity, diaphorase", "setting": "[1]; KS (5° C.), 6 weeks", "result": 4.4, "unit": "U/cm^2"}, {"measurement": "Enzyme activity, diaphorase", "setting": "[1]; KS (5° C.), 9 weeks", "result": 5.2, "unit": "U/cm^2"}, {"measurement": "Enzyme activity, diaphorase", "setting": "[1]; KS (5° C.), 12 weeks", "result": 4.8, "unit": "U/cm^2"}, {"measurement": "Enzyme activity, diaphorase", "setting": "[1]; KS (5° C.), 18 weeks", "result": 7.0, "unit": "U/cm^2"}, {"measurement": "Enzyme activity, diaphorase", "setting": "[1]; RT (25° C.), 6 weeks", "result": 4.5, "unit": "U/cm^2"}, {"measurement": "Enzyme activity, diaphorase", "setting": "[1]; RT (25° C.), 9 weeks", "result": 5.1, "unit": "U/cm^2"}, {"measurement": "Enzyme activity, diaphorase", "setting": "[1]; RT (25° C.), 12 weeks", "result": 4.6, "unit": "U/cm^2"}, {"measurement": "Enzyme activity, diaphorase", "setting": "[1]; RT (25° C.), 18 weeks", "result": 6.7, "unit": "U/cm^2"}, {"measurement": "TM", "setting": "[2]", "result": 43.2, "unit": "°C"}, {"measurement": "ΔHcal", "setting": "[2]", "result": 340, "unit": "kcal/mol"}, {"measurement": "TM", "setting": "[3]", "result": 60.2, "unit": "°C"}, {"measurement": "ΔHcal", "setting": "[3]", "result": 66, "unit": "kcal/mol"}, {"measurement": "residual activity of diaphorase compared to formulation containing NAD", "setting": "[4]", "result": "considerably increased residual activity"}, {"measurement": "residual content of coenzyme in glucose detection reagent", "setting": "[5]", "result": "about 80 % of the initial value"}, {"measurement": "Enzyme activity, glucose dehydrogenase", "setting": "[6]; 0 weeks (start of storage)", "result": 19.8, "unit": "U/cm^2"}, {"measurement": "Enzyme activity, glucose dehydrogenase", "setting": "[6]; DT (35° C.), 6 weeks", "result": 19.8, "unit": "U/cm^2"}, {"measurement": "Enzyme activity, glucose dehydrogenase", "setting": "[6]; DT (35° C.), 9 weeks", "result": 20.2, "unit": "U/cm^2"}, {"measurement": "Enzyme activity, glucose dehydrogenase", "setting": "[6]; DT (35° C.), 12 weeks", "result": 17.2, "unit": "U/cm^2"}, {"measurement": "Enzyme activity, glucose dehydrogenase", "setting": "[6]; DT (35° C.), 18 weeks", "result": 16.9, "unit": "U/cm^2"}, {"measurement": "Enzyme activity, glucose dehydrogenase", "setting": "[6]; GT (30° C.), 12 weeks", "result": 17.6, "unit": "U/cm^2"}, {"measurement": "Enzyme activity, glucose dehydrogenase", "setting": "[6]; GT (30° C.), 18 weeks", "result": 16.8, "unit": "U/cm^2"}, {"measurement": "Enzyme activity, glucose dehydrogenase", "setting": "[6]; HT (45° C.), 6 weeks", "result": 19.0, "unit": "U/cm^2"}, {"measurement": "Enzyme activity, glucose dehydrogenase", "setting": "[6]; HT (45° C.), 9 weeks", "result": 18.8, "unit": "U/cm^2"}, {"measurement": "Enzyme activity, glucose dehydrogenase", "setting": "[6]; KS (5° C.), 6 weeks", "result": 20.4, "unit": "U/cm^2"}, {"measurement": "Enzyme activity, glucose dehydrogenase", "setting": "[6]; KS (5° C.), 9 weeks", "result": 21.2, "unit": "U/cm^2"}, {"measurement": "Enzyme activity, glucose dehydrogenase", "setting": "[6]; KS (5° C.), 12 weeks", "result": 18.5, "unit": "U/cm^2"}, {"measurement": "Enzyme activity, glucose dehydrogenase", "setting": "[6]; KS (5° C.), 18 weeks", "result": 18.8, "unit": "U/cm^2"}, {"measurement": "Enzyme activity, glucose dehydrogenase", "setting": "[6]; RT (25° C.), 6 weeks", "result": 20.7, "unit": "U/cm^2"}, {"measurement": "Enzyme activity, glucose dehydrogenase", "setting": "[6]; RT (25° C.), 9 weeks", "result": 21.5, "unit": "U/cm^2"}, {"measurement": "Enzyme activity, glucose dehydrogenase", "setting": "[6]; RT (25° C.), 12 weeks", "result": 18.0, "unit": "U/cm^2"}, {"measurement": "Enzyme activity, glucose dehydrogenase", "setting": "[6]; RT (25° C.), 18 weeks", "result": 17.7, "unit": "U/cm^2"}, {"measurement": "residual activity of GlucDH", "setting": "[7]; 5 weeks at 32° C. and 85% relative air humidity, compared to samples stored in refrigerator with desiccant", "result": 70, "unit": "%"}, {"measurement": "residual activity of GlucDH", "setting": "[7]; 24 weeks at 32° C. and 85% relative air humidity", "result": "about 25%"}]}]}
